Measurements from ChEMBL document CHEMBL1201862, “PubChem BioAssay data set” (2004).
The source made the active and inactive calls.

Key:
[1] = target: Neuropeptide Y receptor type 2 (Homo sapiens, UniProt P49146); assay type: functional, cell-based;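 also: HEK293 cells expressing the receptor and a CNG channel; stimulus was NPY near EC95 followed by isoproterenol to raise cAMP; antagonist potency measured as restoring cAMP signal that NPY suppresses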
[2] = target: Neuropeptide Y receptor type 1 (Homo sapiens, UniProt P25929); assay type: functional;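 also: HEK293 cells with a CNG channel challenged with NPY then isoproterenol; potency as antagonist that reverses NPY suppression of cAMP signal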
[3] = target: Diphosphomevalonate decarboxylase (Streptococcus pneumoniae serotype 2 (strain D39 / NCTC 7466), UniProt Q9FD53); experiment: diphosphomevalonate decarboxylase inhibitor confirmation – biochemical, cuvette format, coupled NADH fluorescence (AID 1028); assay type: functional
[4] = target: T1, Aryl hydrocarbon receptor (Homo sapiens, UniProt P35869); experiment: Luminescence-based cell-based high throughput dose response assay for activators of the Aryl Hydrocarbon Receptor (AHR). [Related pubchem assays: 2796 (Primary screen (AHR activators in singlicate)), 2845 (Confirmation screen (AHR activators in triplicate)), 434939 (Counterscreen (PXR activators in triplicate)), 2804 (Summary (AHR activators))]; assay type: ADME
T1 sequence (P35869 whole entry): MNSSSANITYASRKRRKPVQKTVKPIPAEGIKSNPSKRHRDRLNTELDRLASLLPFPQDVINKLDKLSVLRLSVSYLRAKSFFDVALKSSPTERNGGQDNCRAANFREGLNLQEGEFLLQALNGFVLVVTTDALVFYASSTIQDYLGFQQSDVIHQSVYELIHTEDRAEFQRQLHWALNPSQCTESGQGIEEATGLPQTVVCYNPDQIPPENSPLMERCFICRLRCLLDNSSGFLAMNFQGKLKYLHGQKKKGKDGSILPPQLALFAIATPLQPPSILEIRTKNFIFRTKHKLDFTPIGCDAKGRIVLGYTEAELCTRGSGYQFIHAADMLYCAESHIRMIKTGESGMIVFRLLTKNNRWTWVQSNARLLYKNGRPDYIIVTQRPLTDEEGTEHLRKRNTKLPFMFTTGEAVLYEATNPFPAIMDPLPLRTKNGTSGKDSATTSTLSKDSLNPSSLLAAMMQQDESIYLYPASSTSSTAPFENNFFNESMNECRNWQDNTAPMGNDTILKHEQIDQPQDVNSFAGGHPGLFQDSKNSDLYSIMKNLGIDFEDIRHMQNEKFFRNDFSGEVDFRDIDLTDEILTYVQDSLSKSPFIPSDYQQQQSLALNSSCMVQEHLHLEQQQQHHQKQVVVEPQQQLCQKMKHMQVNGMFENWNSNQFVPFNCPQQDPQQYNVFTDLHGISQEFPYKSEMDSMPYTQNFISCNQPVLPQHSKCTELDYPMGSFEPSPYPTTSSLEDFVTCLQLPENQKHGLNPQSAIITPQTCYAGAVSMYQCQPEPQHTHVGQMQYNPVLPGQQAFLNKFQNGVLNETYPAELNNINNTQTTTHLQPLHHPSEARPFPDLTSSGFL

[5] = target: Luciferin 4-monooxygenase (Photinus pyralis, UniProt P08659); experiment: inhibition of purified Photinus pyralis luciferase – biochemical, luminescence, dose response (AID 1891)
[6] = Luminescence Cell-Based Dose Confirmation HTS to Identify Inhibitors of Platelet Dense Granule Release. [Related pubchem assays: 1663 (Primary HTS), 1678 (Summary of Project)]; assay type: functional
[7] = Fluorescence Cell-Based Dose Response to Identify Inhibitors of Thrombin Receptor-Activating Peptide SFLLRN-Mediated P-Selectin Induction on Platelets. [Related pubchem assays: 1663 (Primary HTS), 1889 (retest at dose ), 1891 (counterscreen), 1678 (Project Summary)]; assay type: functional
[8] = target: Epstein-Barr nuclear antigen 1 (Epstein-Barr virus (strain B95-8) (HHV-4) (Human herpesvirus 4), UniProt P03211); experiment: inhibition of EBV nuclear antigen 1 DNA binding – biochemical, fluorescence polarization, 1536-well, dose response (AID 2381); design: species or system human gammaherpesvirus 4;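 also: fluorescence polarization of a Cy5 DNA probe bound by EBNA-1 protein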
[9] = target: Lytic switch protein BZLF1 (Epstein-Barr virus (strain B95-8) (HHV-4) (Human herpesvirus 4), UniProt P03206); experiment: inhibition of BZLF1 ZTA DNA binding – biochemical, fluorescence polarization, Epstein-Barr virus, 1536-well, counter-screen for EBNA-1 inhibitor project, dose response (AID 2377); design: species or system human gammaherpesvirus 4;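 also: fluorescence polarization of Cy5-labelled ZRE DNA probe bound by purified Zta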
[10] = Luminescence Cell-Based Dose Confirmation HTS to Identify Inhibitors of Polyadenylation.; assay type: functional
NADPH oxidase 1 = NADPH oxidase 1 (Homo sapiens, UniProt Q9Y5S8); experiment: Late-stage luminescence-based cell-based dose response assay to identify inhibitors of NADPH oxidase 1 (NOX1): Purchased analogs 2.; assay type: functional
SUMO-activating enzyme [11] = target: T2, SUMO-activating enzyme (Homo sapiens, UniProt Q9UBT2); experiment: blockers of SAE1/SAE2–UBC9 SUMO transfer – biochemical, HTRF, uHTS, primary screen (AID 2006); assay type: protein-complex assay
[12] = target: Induced myeloid leukemia cell differentiation protein Mcl-1 (Homo sapiens, UniProt Q07820); experiment: blockers of MCL1 binding to BIM peptide – biochemical, fluorescence polarization, BIM-BH3 peptide, 1536-well, dose response (AID 2217)
SUMO-activating enzyme [13] = target: T2, SUMO-activating enzyme; experiment: blockers of UBC9-mediated SUMO conjugation – biochemical, AlphaScreen, SUMOylation inhibitor project, confirmation (AID 2018); assay type: functional
Bcl-2-like protein 1 = Bcl-2-like protein 1 (Homo sapiens, UniProt Q07817); experiment: blockers of BCLXL peptide binding – biochemical, fluorescence polarization, 1536-well, selectivity assay for MCL1 inhibitor project, dose response (AID 2218)
Estrogen receptor beta [14] = target: T3, Estrogen receptor beta (Homo sapiens, UniProt Q92731);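 also: recombinant ER-beta bound to coactivator SRC1 peptide in presence of estradiol agonist; inhibitors block coactivator peptide binding and lower the FRET signal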
Estrogen receptor beta [15] = target: T3, Estrogen receptor beta; experiment: blockers of SRC-3 recruitment to ERβ – biochemical, ELISA, streptavidin-HRP readout, orthogonal assay, confirmation (AID 1060)
Bcl-2-like protein 10 = target: T4, Bcl-2-like protein 10 (Homo sapiens, UniProt Q9HD36); experiment: Bcl-B/TR3 peptide binding disruption – biochemical, fluorescence polarization, FITC-TR3 peptide, selectivity assay for Bfl-1 inhibitor project, primary screen (AID 748);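 also: fluorescence polarization from a fluorescein-labelled TR3 peptide binding purified Bcl-B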
T4 sequence (Q9HD36 whole entry): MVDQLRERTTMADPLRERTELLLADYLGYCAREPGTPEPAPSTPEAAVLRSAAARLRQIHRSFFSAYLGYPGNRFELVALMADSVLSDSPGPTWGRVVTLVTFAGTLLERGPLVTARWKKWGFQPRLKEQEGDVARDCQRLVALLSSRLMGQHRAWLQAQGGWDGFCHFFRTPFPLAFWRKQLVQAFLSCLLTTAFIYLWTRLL

T2 sequence (Q9UBE0 whole entry): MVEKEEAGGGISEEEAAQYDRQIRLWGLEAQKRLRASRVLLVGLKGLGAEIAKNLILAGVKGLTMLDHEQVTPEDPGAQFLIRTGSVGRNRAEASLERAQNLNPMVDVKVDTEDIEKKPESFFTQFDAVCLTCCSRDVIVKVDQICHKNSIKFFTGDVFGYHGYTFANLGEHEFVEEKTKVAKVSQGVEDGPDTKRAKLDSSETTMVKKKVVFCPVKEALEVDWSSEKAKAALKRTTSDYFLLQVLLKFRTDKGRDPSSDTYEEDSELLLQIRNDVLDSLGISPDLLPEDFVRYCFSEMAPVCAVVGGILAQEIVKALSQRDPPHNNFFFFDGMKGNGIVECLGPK
T2 sequence (Q9UBT2 whole entry): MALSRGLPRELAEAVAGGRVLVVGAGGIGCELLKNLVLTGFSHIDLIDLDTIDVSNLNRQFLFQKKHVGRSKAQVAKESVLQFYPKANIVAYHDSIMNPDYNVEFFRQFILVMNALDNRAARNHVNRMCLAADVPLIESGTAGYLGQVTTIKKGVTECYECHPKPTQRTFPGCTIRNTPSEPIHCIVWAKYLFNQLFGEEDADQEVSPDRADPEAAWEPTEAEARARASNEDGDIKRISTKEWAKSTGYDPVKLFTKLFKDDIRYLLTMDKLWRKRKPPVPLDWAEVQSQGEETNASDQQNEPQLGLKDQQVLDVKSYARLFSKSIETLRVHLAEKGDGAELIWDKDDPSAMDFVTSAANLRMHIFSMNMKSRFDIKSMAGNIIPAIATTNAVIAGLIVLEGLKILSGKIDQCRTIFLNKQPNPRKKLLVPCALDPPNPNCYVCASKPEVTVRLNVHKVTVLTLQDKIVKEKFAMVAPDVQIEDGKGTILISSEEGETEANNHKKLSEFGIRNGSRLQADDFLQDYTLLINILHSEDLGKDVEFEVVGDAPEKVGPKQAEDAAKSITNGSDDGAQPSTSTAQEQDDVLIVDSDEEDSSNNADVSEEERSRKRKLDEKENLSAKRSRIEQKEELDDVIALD
T3 sequence (Q92731 whole entry): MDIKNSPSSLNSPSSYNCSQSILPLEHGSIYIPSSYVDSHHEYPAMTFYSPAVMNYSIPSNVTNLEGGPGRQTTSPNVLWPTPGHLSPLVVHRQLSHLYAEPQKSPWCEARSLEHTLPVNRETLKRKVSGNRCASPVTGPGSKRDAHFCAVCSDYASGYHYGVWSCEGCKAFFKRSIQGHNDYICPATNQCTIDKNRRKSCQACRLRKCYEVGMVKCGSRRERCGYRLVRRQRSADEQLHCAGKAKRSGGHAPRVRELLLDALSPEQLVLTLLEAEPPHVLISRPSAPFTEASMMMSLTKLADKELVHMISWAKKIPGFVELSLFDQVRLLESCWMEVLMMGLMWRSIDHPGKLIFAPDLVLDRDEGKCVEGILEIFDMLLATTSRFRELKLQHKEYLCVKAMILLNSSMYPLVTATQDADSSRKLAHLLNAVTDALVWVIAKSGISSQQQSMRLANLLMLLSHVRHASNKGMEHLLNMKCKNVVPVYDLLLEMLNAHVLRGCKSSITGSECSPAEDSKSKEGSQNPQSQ
Sequence of Diphosphomevalonate decarboxylase (Q9FD53 whole entry): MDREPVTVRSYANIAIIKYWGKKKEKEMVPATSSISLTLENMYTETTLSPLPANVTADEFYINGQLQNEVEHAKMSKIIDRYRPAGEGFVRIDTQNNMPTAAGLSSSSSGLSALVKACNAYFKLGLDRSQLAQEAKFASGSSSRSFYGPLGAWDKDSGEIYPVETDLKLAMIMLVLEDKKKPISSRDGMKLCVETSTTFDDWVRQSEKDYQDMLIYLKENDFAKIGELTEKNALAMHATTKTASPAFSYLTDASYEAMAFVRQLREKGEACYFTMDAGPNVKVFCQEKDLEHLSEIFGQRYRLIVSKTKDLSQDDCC
Sequence of Neuropeptide Y receptor type 2 (P49146 whole entry): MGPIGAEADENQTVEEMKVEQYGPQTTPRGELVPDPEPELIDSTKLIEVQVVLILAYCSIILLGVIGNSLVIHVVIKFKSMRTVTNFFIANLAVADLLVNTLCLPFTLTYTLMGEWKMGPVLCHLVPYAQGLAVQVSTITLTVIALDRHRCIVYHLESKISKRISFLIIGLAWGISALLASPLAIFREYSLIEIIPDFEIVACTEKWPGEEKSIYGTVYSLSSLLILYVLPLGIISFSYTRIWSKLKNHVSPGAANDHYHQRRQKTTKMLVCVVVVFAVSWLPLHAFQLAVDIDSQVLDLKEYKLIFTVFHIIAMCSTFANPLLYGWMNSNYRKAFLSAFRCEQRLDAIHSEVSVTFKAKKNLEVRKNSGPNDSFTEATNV
Sequence of Epstein-Barr nuclear antigen 1 (P03211 whole entry): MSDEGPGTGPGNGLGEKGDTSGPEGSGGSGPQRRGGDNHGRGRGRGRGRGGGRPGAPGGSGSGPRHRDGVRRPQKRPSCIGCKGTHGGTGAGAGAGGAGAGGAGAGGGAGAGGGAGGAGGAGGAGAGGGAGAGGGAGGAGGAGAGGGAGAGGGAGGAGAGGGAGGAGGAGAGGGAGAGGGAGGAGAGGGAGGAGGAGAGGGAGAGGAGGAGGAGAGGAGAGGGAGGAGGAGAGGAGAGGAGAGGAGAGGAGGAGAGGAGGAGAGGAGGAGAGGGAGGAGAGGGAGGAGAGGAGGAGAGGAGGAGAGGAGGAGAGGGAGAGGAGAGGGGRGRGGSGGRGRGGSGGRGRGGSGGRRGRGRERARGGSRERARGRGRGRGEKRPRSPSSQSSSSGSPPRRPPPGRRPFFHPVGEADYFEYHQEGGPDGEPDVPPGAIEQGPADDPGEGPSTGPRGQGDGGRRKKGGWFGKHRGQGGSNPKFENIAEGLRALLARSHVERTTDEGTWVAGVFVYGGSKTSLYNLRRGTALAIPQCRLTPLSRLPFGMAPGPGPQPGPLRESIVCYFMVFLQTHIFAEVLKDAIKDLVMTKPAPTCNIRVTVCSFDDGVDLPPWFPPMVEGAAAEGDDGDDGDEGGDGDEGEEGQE
Sequence of Induced myeloid leukemia cell differentiation protein Mcl-1 (Q07820 whole entry): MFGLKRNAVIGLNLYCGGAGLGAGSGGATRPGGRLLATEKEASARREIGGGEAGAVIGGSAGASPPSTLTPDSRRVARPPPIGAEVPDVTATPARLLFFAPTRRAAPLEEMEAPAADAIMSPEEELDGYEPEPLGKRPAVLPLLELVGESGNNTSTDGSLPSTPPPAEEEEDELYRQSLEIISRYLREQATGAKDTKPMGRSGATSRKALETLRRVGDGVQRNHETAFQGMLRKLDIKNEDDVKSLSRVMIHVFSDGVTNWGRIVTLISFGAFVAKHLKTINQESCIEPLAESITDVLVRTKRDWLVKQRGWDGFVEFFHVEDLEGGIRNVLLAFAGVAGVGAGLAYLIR
Sequence of Lytic switch protein BZLF1 (P03206 whole entry): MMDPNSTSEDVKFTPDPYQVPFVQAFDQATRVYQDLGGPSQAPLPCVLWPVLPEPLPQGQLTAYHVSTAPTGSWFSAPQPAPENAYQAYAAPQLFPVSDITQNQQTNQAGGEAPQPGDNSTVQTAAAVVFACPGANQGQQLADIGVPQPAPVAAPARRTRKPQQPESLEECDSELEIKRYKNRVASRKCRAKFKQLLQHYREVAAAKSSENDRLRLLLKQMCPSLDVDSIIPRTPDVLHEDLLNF
Sequence of Neuropeptide Y receptor type 1 (P25929 whole entry): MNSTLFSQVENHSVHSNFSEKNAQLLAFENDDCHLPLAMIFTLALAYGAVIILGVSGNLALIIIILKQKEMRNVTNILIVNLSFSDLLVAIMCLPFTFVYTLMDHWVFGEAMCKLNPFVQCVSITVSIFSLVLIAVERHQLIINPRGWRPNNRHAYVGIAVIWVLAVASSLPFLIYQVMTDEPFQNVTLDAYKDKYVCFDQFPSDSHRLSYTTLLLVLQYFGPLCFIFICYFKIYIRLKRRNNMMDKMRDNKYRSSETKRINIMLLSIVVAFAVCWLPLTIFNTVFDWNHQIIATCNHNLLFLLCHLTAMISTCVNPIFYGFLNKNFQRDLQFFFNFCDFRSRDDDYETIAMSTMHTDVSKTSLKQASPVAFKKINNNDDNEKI
Sequence of Bcl-2-like protein 1 (Q07817 whole entry): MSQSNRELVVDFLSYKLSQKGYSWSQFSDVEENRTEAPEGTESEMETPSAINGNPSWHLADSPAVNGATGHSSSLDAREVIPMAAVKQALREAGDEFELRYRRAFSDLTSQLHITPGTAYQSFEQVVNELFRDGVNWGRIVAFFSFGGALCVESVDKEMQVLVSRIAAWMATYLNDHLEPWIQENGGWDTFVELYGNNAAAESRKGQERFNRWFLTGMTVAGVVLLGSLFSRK
Sequence of Luciferin 4-monooxygenase (P08659 whole entry): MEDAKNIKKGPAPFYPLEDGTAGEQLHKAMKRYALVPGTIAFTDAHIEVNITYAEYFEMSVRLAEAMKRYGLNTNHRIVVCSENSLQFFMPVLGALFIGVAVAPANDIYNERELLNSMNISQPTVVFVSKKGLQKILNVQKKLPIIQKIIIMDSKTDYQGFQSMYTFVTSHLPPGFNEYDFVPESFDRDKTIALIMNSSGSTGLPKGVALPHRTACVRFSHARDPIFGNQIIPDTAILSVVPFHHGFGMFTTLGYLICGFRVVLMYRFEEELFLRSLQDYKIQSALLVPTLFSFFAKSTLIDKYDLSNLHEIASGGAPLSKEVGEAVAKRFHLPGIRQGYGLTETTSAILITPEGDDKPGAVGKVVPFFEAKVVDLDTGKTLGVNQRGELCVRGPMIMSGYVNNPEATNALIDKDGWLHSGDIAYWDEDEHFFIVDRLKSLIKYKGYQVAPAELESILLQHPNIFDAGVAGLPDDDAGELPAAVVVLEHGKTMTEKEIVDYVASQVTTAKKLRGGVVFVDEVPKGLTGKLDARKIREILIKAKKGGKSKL

For `CCc1cccc(CC)c1NC(=O)COC(=O)c1ccccc1-c1nc2ccccc2s1`, the IC50 [1] was 17.3 µM (not active) and the IC50 [2] was 5.77 µM (active).
With `CCCN(CCC)C(=O)c1cccc(-n2sc3ccccc3c2=O)c1` the IC50 [3] was 18.1 µM (active).
In the case of `CSc1ncc(C(=O)Nc2ccc(Cl)cc2)c(C)n1`, the EC50 [4] is reported as 22.2 nM (active).
For `COc1cc2c(cc1OC)-c1cc(Nc3ccc(F)cc3)nc(=O)n1CC2`, the EC50 [5] was > 112 µM (not active), the EC50 [6] was 1.82 µM (active) and the EC50 [7] was < 300 nM (active).
In the case of `Nc1c(C(=O)Nc2ccc3c(c2)OCCO3)nnn1Cc1cccc(F)c1`, the IC50 [8] is reported as 13.7 µM (not active) and the IC50 [9] is reported as > 111 µM (not active).
For `Cc1nc2ccc(C(=O)NCc3ccc4c(c3)OCO4)cc2s1`, the EC50 [10] was > 120 µM (not active).
With `S=C(NNC(=S)Nc1ccc(Cl)cc1)Nc1ccccc1` the IC50 (NADPH oxidase 1) was 725 nM (active).
With `O=c1nc2s/c(=C\c3ccco3)c(=O)n2nc1Cc1ccc(F)cc1` the IC50 (SUMO-activating enzyme [11]) was 38.3 µM (active), the IC50 [12] was > 109 µM (not active) and the IC50 (SUMO-activating enzyme [13]) was 7.36 µM (active). For the same compound, the IC50 (Bcl-2-like protein 1) was > 109 µM (not active), the IC50 (Estrogen receptor beta [14]) was 2.35 µM (active) and the IC50 (Estrogen receptor beta [15]) was 987 nM (not active). For the same compound, the IC50 (Bcl-2-like protein 10) was 14.7 µM (active).
